pKd, pKi: −log10 of the molar value. Where “and” joins values, the source holds several entries; their conditions need not be identical. Equal values may be shown once. Entries after “also recorded” stand apart in the source; their conditions may differ. Read-outs that look alike come from different tables or passages of the source.
Experiments:
DNA polymerase X (Pol X) [1] = target: T1, DNA polymerase X (Pol X) (African swine fever virus, UniProt P42494); assay: biochemical; assay type: biochemical
DNA polymerase X (Pol X) [2] = target: T1, DNA polymerase X (Pol X)
DNA polymerase X (Pol X) [3] = target: T1, DNA polymerase X (Pol X); conditions: cited from earlier work

T1 sequence (P42494 whole entry, looked up): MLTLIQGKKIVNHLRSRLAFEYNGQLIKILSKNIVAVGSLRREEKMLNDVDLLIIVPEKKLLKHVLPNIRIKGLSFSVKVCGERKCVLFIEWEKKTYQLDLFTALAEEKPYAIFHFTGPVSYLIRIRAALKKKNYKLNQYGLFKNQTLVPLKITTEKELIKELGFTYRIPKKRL

Structure (SMILES)	Km (DNA polymerase X (Pol X) [1])	Vmax (DNA polymerase X (Pol X) [1])	global fitting Vmax (DNA polymerase X (Pol X) [1])	Km (DNA polymerase X (Pol X) [1]; read-out: global fitting Km)	single-exponential rate k of fluorescence change (DNA polymerase X (Pol X) [2])	inhibition of Pol X by PPi (DNA polymerase X (Pol X) [1])	incorporation under the steady-state conditions (DNA polymerase X (Pol X) [1])	pKi (DNA polymerase X (Pol X) [1]; global fitting KI)	k1 of fluorescence change (double-exponential) (DNA polymerase X (Pol X) [2])	k2 of fluorescence change (double-exponential) (DNA polymerase X (Pol X) [2])	turnover rate slower than the rate of correct dG:dCTP incorporation (DNA polymerase X (Pol X) [3])	pKd (DNA polymerase X (Pol X) [3]; read-out: KD,app)
Nc1ccn([C@H]2C[C@H](O)[C@@H](COP(=O)(O)OP(=O)(O)OP(=O)(O)O)O2)c(=O)n1 [dCTP]	32 µM and 45 µM	0.52 ± 0.02 nmol/min and 0.49 ± 0.02 nmol/min	0.51 nmol/min and 0.47 nmol/min	35 µM and 41 µM	1.64 s⁻¹ and 1.64 ± 0.01 s⁻¹							
O=P(O)(O)OP(=O)(O)O [PPi, Pyrophosphate]						not inhibited noticeably; also recorded: modest inhibition						
Nc1ncnc2c1ncn2[C@H]1C[C@H](O)[C@@H](COP(=O)(O)OP(=O)(O)OP(=O)(O)O)O1 [dATP]			1.51 nmol/min	13 µM			no detectable incorporation	4.32 and 3.82	5.92 ± 0.21 s⁻¹	1.17 ± 0.02 s⁻¹	430 fold	4.10

— PMC2652249 (Biochemistry, 2008)
